Legend:
[1] = Binding affinity to D-Glucose assessed as molar ratio of sugar to compound in aggregate at pH 4.5 by co-precipitation method in presence of Ca2+
[2] = Binding affinity to D-Mannose assessed as molar ratio of sugar to compound in aggregate at 2 umol at pH 6 by 1H NMR analysis in presence of 20 umol CaCl2
[3] = Binding affinity to alpha-D-Mannose-OMe assessed as molar ratio of sugar to compound in aggregate at 2 umol at pH 6 by 1H NMR analysis in presence of 20 umol CaCl2
[4] = Binding affinity to beta-D-Mannose-OMe assessed as molar ratio of sugar to compound in aggregate at 2 umol at pH 6 by 1H NMR analysis in presence of 20 umol CaCl2
[5] = Binding affinity to D-Arabinose assessed as molar ratio of sugar to compound in aggregate at 2 umol at pH 6 by 1H NMR analysis in presence of 20 umol CaCl2
[6] = Binding affinity to D-Glucose assessed as molar ratio of sugar to compound in aggregate at 2 umol at pH 6 by 1H NMR analysis in presence of 20 umol CaCl2
[7] = Binding affinity to alpha-D-Glucose-OMe assessed as molar ratio of sugar to compound in aggregate at 2 umol at pH 6 by 1H NMR analysis in presence of 20 umol CaCl2
[8] = Binding affinity to L-[…] assessed as molar ratio of sugar to compound in aggregate at 2 umol at pH 6 by 1H NMR analysis in presence of 20 umol CaCl2
[9] = Binding affinity to alpha-L-[…]-OMe assessed as molar ratio of sugar to compound in aggregate at 2 umol at pH 6 by 1H NMR analysis in presence of 20 umol CaCl2
[10] = Binding affinity to beta-L-[…]-OMe assessed as molar ratio of sugar to compound in aggregate at 2 umol at pH 6 by 1H NMR analysis in presence of 20 umol CaCl2
[11] = Binding affinity to L-Galactose assessed as molar ratio of sugar to compound in aggregate at 2 umol at pH 6 by 1H NMR analysis in presence of 20 umol CaCl2
[12] = Binding affinity to alpha-L-Galactose-OMe assessed as molar ratio of sugar to compound in aggregate at 2 umol at pH 6 by 1H NMR analysis in presence of 20 umol CaCl2
[13] = Binding affinity to beta-L-Galactose-OMe assessed as molar ratio of sugar to compound in aggregate at 2 umol at pH 6 by 1H NMR analysis in presence of 20 umol CaCl2
[14] = Binding affinity to D-Mannose assessed as molar ratio of sugar to compound in aggregate at 2 umol at pH 6 incubated at 60 degC for 15 mins, room temperature for 1 hr, and 4 degC for 1 hr by co-precipitation method in presence of 100 umol CaCl2
[15] = Binding affinity to alpha-D-Mannose-OMe assessed as molar ratio of sugar to compound in aggregate at 2 umol incubated at 60 degC for 15 mins, room temperature for 1 hr, and 4 degC for 1 hr by co-precipitation method in presence of 100 umol CaCl2
[16] = Binding affinity to beta-D-Mannose-OMe assessed as molar ratio of sugar to compound in aggregate at 2 umol incubated at 60 degC for 15 mins, room temperature for 1 hr, and 4 degC for 1 hr by co-precipitation method in presence of 100 umol CaCl2
[17] = Binding affinity to L-[…] assessed as molar ratio of sugar to compound in aggregate at 2 umol incubated at 60 degC for 15 mins, room temperature for 1 hr, and 4 degC for 1 hr by co-precipitation method in presence of 100 umol CaCl2
[18] = Binding affinity to alpha-L-[…]-OMe assessed as molar ratio of sugar to compound in aggregate at 2 umol incubated at 60 degC for 15 mins, room temperature for 1 hr, and 4 degC for 1 hr by co-precipitation method in presence of 100 umol CaCl2
[19] = Binding affinity to beta-L-[…]-OMe assessed as molar ratio of sugar to compound in aggregate at 2 umol incubated at 60 degC for 15 mins, room temperature for 1 hr, and 4 degC for 1 hr by co-precipitation method in presence of 100 umol CaCl2
[20] = Binding affinity to L-Galactose assessed as molar ratio of sugar to compound in aggregate at 2 umol incubated at 60 degC for 15 mins, room temperature for 1 hr, and 4 degC for 1 hr by co-precipitation method in presence of 100 umol CaCl2
[21] = Binding affinity to alpha-L-Galactose-OMe assessed as molar ratio of sugar to compound in aggregate at 2 umol incubated at 60 degC for 15 mins, room temperature for 1 hr, and 4 degC for 1 hr by co-precipitation method in presence of 100 umol CaCl2
[22] = Binding affinity to beta-L-Galactose-OMe assessed as molar ratio of sugar to compound in aggregate at 2 umol incubated at 60 degC for 15 mins, room temperature for 1 hr, and 4 degC for 1 hr by co-precipitation method in presence of 100 umol CaCl2
[23] = Binding affinity to Alpha-D-Mannose-OMe assessed as molar ratio of sugar to compound in aggregate at pH 4.5 by co-precipitation method in presence of Ca2+

Activity [1]: 0.57 molar ratio
Activity [2]: 1.07 molar ratio
Activity [3]: 1.13 molar ratio
Activity [4]: 1.15 molar ratio
Activity [5]: 1.14 molar ratio
Activity [6]: < 0.1 molar ratio
Activity [7]: < 0.1 molar ratio
Activity [8]: < 0.1 molar ratio
Activity [9]: 0.28 molar ratio
Activity [10]: 0.52 molar ratio
Activity [11]: < 0.1 molar ratio
Activity [12]: 0.32 molar ratio
Activity [13]: 0.6 molar ratio
Activity [14]: 1.08 molar ratio
Activity [15]: 1.11 molar ratio
Activity [16]: 1.08 molar ratio
Activity [17]: < 0.1 molar ratio
Activity [18]: < 0.1 molar ratio
Activity [19]: < 0.1 molar ratio
Activity [20]: < 0.1 molar ratio
Activity [21]: < 0.1 molar ratio
Activity [22]: < 0.1 molar ratio
Activity [23]: 1.08 molar ratio
Compound: CN[C@@H]1[C@H](O[C@@H]2OC[C@@H](O)[C@H](O)[C@H]2O)[C@@H](O)[C@H](O[C@H]2c3cc(C)c(C(=O)N[C@H](C)C(=O)O)c(O)c3-c3c(cc4c(c3O)C(=O)c3cc(OC)cc(O)c3C4=O)[C@@H]2O)O[C@@H]1C
